Assay results from US20220265619A1, “COMBINATION TREATMENT OF LIVER DISEASES USING FXR AGONISTS” (Novartis AG, priority 2019, published 2022).
Entries after “also recorded” stand apart in the source; their conditions may differ.

Experiments:
[1] = FLIGHT-FXR (NCT02855164) Part C interim analysis, tropifexor in fibrotic NASH; assay type: in vivo, human; conditions: for ALT, LS mean absolute change (SE) from baseline to Week 12: placebo −8.9 (4.19); for GGT, LS mean absolute change (SE) from baseline to Week 12: placebo −2.5 (3.55); for Body weight, LS mean absolute change (SE) from baseline to Week 12: placebo −1.14 (0.36)
[2] = Drug-drug interaction study of tropifexor and licogliflozin in healthy but overweight to obese subjects; assay type: in vivo, human
Method: Sixteen subjects with a BMI of 25 to 35 kg/m2 were enrolled. […] Standard safety assessments were performed, with adverse event monitoring. Steady state PK parameters from Period 1 or 2 (single agent PK) were compared with that from Period 3 (combination PK) to assess the effect of potential drug interaction.

[3] = Tropifexor in NASH patients, Parts A and B of study CLJN452A2202
[4] = NASH patients; cited from earlier work
human hepatocytes = assay: LDL uptake by in vitro human hepatocytes treated with FXR agonists; assay type: cell-based
Text: To mitigate the increase in peripheric LDL, we hypothesize that treating the subjects in the evening (from about 6 pm to about […], e.g. from about 8 pm to about 11 pm, preferably around 9 pm) would be reduce the impact of the drug on LDL. […] In addition, during night time, the hepatocytes rely less on cholesterol coming from the food intake (LDL and others) since the body is then fasting but more on the intrahepatic production of cholesterol via HMGCOa reductase; the activity of this enzyme is the highest during the night. Indeed, in human, whilst the Cyp7A1 activity peak at 1 and 9 pm, intracellular cholesterol levels in hepatocytes are the highest during the night (between midnight and 4 AM).

[5] = Placebo-controlled, randomized Phase 2a study of licogliflozin in NASH patients, interim analysis (NCT03205150, CLIK066X2204); assay type: in vivo, human; conditions: for patients achieving at least 5% absolute reduction in liver fat: 12 weeks (placebo 18.8%); for proportion of patients with at least a 30% relative reduction in liver fat content: 12 weeks (placebo 25%); for patients reporting diarrhea (adverse event): 12 weeks (placebo 38.9%)
Method: METHOD: Patients with histologically confirmed NASH (F1-F3) or phenotypic NASH (BMI≥27 kg/m^2 in non-Asians or 23 kg/m^2 in Asians, ALT≥50 (males) or 35 (females) and type 2 diabetes (T2DM)) received daily oral licogliflozin at 150 mg, 30 mg or placebo in a 2:2:1 ratio for 12 weeks (NCT03205150). The primary endpoint is the effect on ALT level after 12 weeks of treatment. Secondary endpoints include improvement in body weight, liver fat content and AST, amongst others. The study size is 110 of which 77 have completed (placebo (n=18); licogliflozin 30 mg (n=25) and licogliflozin 150 mg (n=34)) and are included in the interim analysis.

[6] = Licogliflozin 150 mg daily, 12 week treatment in obese patients / normoglycemic and dysglycemic subjects; assay type: in vivo, human
Method: (§1) i.e., (2S,3R,4R,5S,6R)-2-(3-((2,3-dihydrobenzo[b][1,4]dioxin-6-yl)methyl)-4-ethylphenyl)-6-(hydroxymethyl)tetrahydro-2H-pyran-3,4,5-triol. […] Licogliflozin at 150 mg daily dose results in a significant weight loss in obese patients (˜6%) after 12 week treatment.

[7] = Dose finding study of licogliflozin in Japanese patients with obesity disease; assay type: in vivo, human; conditions: for placebo-subtracted percentage change in body weight from baseline at Week 12: Japanese patients with obesity disease
Method: This study was a randomized, double-blind, placebo controlled, dose finding study to evaluate the effect of licogliflozin (2.5, 10, 25 and 50 mg qd) in 126 Japanese patients with obesity disease. The primary objective was to examine the dose-response relationship of licogliflozin treatment in body weight reduction relative to placebo at 12 weeks. The secondary objectives included assessment of responder rates, change in parameters related to complications, visceral and subcutaneous fat area, and safety through 12 weeks of treatment.

[8] = Phase 2 dose range finding study of licogliflozin in obese patients (CLIK066B2201); assay type: in vivo, human; conditions: obese patients (placebo 19.2%)
Method: A dose of 30 mg QD is expected to achieve approximately 70% of maximum observed efficacy (using weight loss as a downstream marker for efficacy; CLIK066B2201). Licogliflozin is currently being tested as 30 mg and 150 mg QD monotherapy in NASH (CLIK066X2204). […] To minimize the risk of GI adverse effects of the SGLT1 inhibition in the gut such as diarrhea, licogliflozin will be administered in the evening.

[9] = Licogliflozin 2 week study in healthy subjects and patients with T2DM; assay type: in vivo, human
Method: as §1

[10] = 200 μg once daily, n = 46, P < 0.001
[11] = tropifexor 140 μg in the presence of licogliflozin 50 mg vs alone
[12] = 10 to 90 μg daily for 12 weeks, NASH patients
[13] = all doses (10, 30, 60 and 90 μg), 12 weeks
[14] = licogliflozin 50 mg in the presence of tropifexor 140 μg vs alone

## O=C(O)c1cc(F)c2nc(N3C4CC[C@H]3CC(OCc3c(-c5ccccc5OC(F)(F)F)noc3C3CC3)C4)sc2c1 (stereo partly drawn) [tropifexor, 2-[(1R,3r,5S)-3-({5-cyclopropyl-3-[2-(trifluoromethoxy)phenyl]-1,2-oxazol-4-yl}methoxy)-8-azabicyclo[3.2.1]octan-8-yl]-4-fluoro-1,3-benzothiazole-6-carboxylic acid]
[1]; 140 μg and 200 μg
  low density lipoprotein-cholesterol (LDL-C): dose-related increase
[1]; 140 μg and 200 μg vs placebo
  frequency of serious adverse events: low and comparable across groups
[1]; 140 μg once daily, n = 41, P = 0.058
  ALT, LS mean absolute change (SE) from baseline to Week 12: −20.1 (4.57) U/L
[1]; 140 μg once daily, n = 44, P < 0.001
  GGT, LS mean absolute change (SE) from baseline to Week 12: −39.2 (3.70) U/L
[1]; 140 μg once daily, n = 46, P = 0.010
  Body weight, LS mean absolute change (SE) from baseline to Week 12: −2.46 (0.38) kg
[1]; 140 μg, n=1 (placebo 0%)
  treatment discontinuation rate due to pruritus: 2%
[1]; 200 μg once daily
  pre-specified endpoints at week 12: met
[1]; 200 μg once daily, n = 39, P = 0.013
  ALT, LS mean absolute change (SE) from baseline to Week 12: −23.6 (4.48) U/L
[1]; [10]
  Body weight, LS mean absolute change (SE) from baseline to Week 12: −3.20 (0.37) kg
  GGT, LS mean absolute change (SE) from baseline to Week 12: −40.9 (3.62) U/L
[1]; 200 μg, n=3 (placebo 0%)
  treatment discontinuation rate due to pruritus: 6%
[1]; both Tropifexor groups (140 μg, 200 μg)
  patients with pruritus whose events had mild (Grade 1) severity: > 60%
[1]; higher doses (140 μg, 200 μg)
  ALT, HFF, and body weight after 12 weeks: robust and dose-dependent decreases
  safety and tolerability after 12 weeks: good safety and tolerability
[2]; [11]
  decrease of mean peak plasma concentration (Cmax,ss): 15%
  decrease of total exposure (AUCtau,ss): 12%
[3]; [12]
  biologic activity (GGT): clear dose response
  target engagement (FGF19): clear dose response
[3]; [13]
  ALT compared to placebo: reduced across all tropifexor doses
  hepatic fat fraction compared to placebo: reduced across all tropifexor doses
[3]; up to 90 μg daily
  tolerability: generally well tolerated up to 90 μg daily without safety signals

## CC[C@H]1[C@@H](O)[C@@H]2[C@H](CC[C@]3(C)[C@@H]([C@H](C)CCC(=O)O)CC[C@@H]23)[C@@]2(C)CC[C@@H](O)C[C@@H]12 [obeticholic acid, 6α-ethyl-chenodeoxycholic acid]
[4]
  safety on long term administration: associated with pruritus, as well as with lipid abnormalities
Human hepatocytes; FIG. 5
  LDL uptake by hepatocytes: reduce the LDL uptake by hepatocytes in a dose dependent manner
Human hepatocytes; FIG. 5, listed as OCA
  LDL uptake by hepatocytes: decreased LDL uptake

## CCc1ccc([C@@H]2O[C@H](CO)[C@@H](O)[C@H](O)[C@H]2O)cc1Cc1ccc2c(c1)OCCO2 [licogliflozin, (2S,3R,4R,5S,6R)-2-(3-((2,3-dihydrobenzo[b][1,4]dioxin-6-yl)methyl)-4-ethylphenyl)-6-(hydroxymethyl)tetrahydro-2H-pyran-3,4,5-triol]
[2]; [14]
  increase of mean peak plasma concentration: 8%
  increase of total exposure: 12%
[5]; 30 mg daily oral, 12 weeks, p=NS
  placebo adjusted reduction from baseline levels of ALT: 19%
[5]; 30 mg
  patients achieving at least 5% absolute reduction in liver fat: 43.5%
  proportion of patients with at least a 30% relative reduction in liver fat content: 39.5%
  patients reporting diarrhea (adverse event): 40%
[5]; 30 mg, 12 weeks, p=0.001
  placebo adjusted reduction in HbA1c (absolute change): 0.81%
[5]; 30 mg, 12 weeks, p=0.014
  reduction in GGT: 26%
[5]; 30 mg, 12 weeks, p=0.043
  reduction in AST: 23%
[5]; 30 mg, 12 weeks, p=NS
  absolute reduction in liver fat: 2.71%
  relative reduction in liver fat content: 10%
[5]; 150 mg QD monotherapy in NASH
  ALT and liver fat, interim analysis: promising reduction of ALT and liver fat
  gastrointestinal events (mainly diarrhea), interim analysis: significant incidence of gastrointestinal events
[5]; 150 mg daily oral, 12 weeks, p=0.036
  placebo adjusted reduction from baseline levels of ALT: 27%
[5]; 150 mg
  patients achieving at least 5% absolute reduction in liver fat: 63.3%
  proportion of patients with at least a 30% relative reduction in liver fat content: 66.7%
  patients reporting diarrhea (adverse event): 76.5%
[5]; 150 mg, 12 weeks, p=0.0001
  placebo adjusted reduction in HbA1c (absolute change): 0.96%
[5]; 150 mg, 12 weeks, p=0.001
  reduction in GGT: 32%
[5]; 150 mg, 12 weeks, p=0.004
  reduction in AST: 30%
[5]; 150 mg, 12 weeks, p=0.01
  absolute reduction in liver fat: 4.45%
  relative reduction in liver fat content: 22%
[5]; 12 weeks of treatment, NASH patients
  safety and tolerability: safe and tolerable
[5]; all diarrhea events of the study
  diarrhea events that were mild: 97.4%
[5]; both doses (150 mg and 30 mg), 12 weeks, p=0.0001
  placebo adjusted reduction in body weight: ~4%
[6]; 150 mg daily dose, obese patients, after 12 week treatment
  weight loss: ~6%
[6]; 150 mg once daily, twelve weeks, normoglycemic and dysglycemic subjects
  safety and tolerability: generally safe and well tolerated with diarrhea observed as a dose-limiting toxicity
[7]; 2.5 mg qd
  placebo-subtracted percentage change in body weight from baseline at Week 12: −1.99%
[7]; 10 mg qd
  placebo-subtracted percentage change in body weight from baseline at Week 12: −3.00%
[7]; 25 mg qd
  placebo-subtracted percentage change in body weight from baseline at Week 12: −3.54%
[7]; 50 mg qd
  placebo-subtracted percentage change in body weight from baseline at Week 12: −3.91%
[7]; 2.5, 10, 25 and 50 mg qd over 12 weeks
  safety: safe with no ketoacidosis and no new safety signals
[7]; 2.5, 10, 25 and 50 mg qd, 12 weeks
  body weight, dose dependence: dose-dependent reduction in body weight
[7]; 10, 25 and 50 mg qd dose groups (placebo 7.1%; p≤0.002 for all)
  patients achieving reduction of ≥3% in body weight: ≥ 50%
[8]; 2.5 mg QD for 24 weeks
  incidence of diarrhea: 18.4%
[8]; 10 mg QD for 24 weeks
  incidence of diarrhea: 15.8%
[8]; 50 mg QD for 24 weeks
  incidence of diarrhea: 55.3%
[8]; 150 mg QD for 24 weeks
  incidence of diarrhea: 68.8%
[9]
  pharmacokinetic profile: favorable pharmacokinetic profile
  safety and tolerability: safe and tolerated
[9]; over 2 weeks
  placebo-adjusted weight loss: up to 3%

## O=C(O)c1ccnc(N2CC(O)(c3ccc(OCc4c(-c5c(Cl)cccc5Cl)noc4C4CC4)cc3Cl)C2)c1 [cilofexor]
Human hepatocytes; FIG. 5
  LDL uptake by hepatocytes: reduce the LDL uptake by hepatocytes in a dose dependent manner; also recorded: decreased LDL uptake
